Test results published in patent publication US11834434B2, “Substituted 2-heteroaryloxypyridines and salts thereof and their use as herbicidal agents” (Bayer Aktiengesellschaft, priority 2018, dated 2023).

What was measured:
Format in all cases: in vivo
[1] = tested on: Echinochloa crus-galli (ECHCG); experiment: Post-emergence herbicidal action against Echinochloa crus-galli; details: 1280 g/ha; rated visually after about 3 weeks vs untreated controls; 100% = plants have died, 0% = like control plants
Protocol: (§1) Seeds of mono- and dicotyledonous weed plants were placed in plastic pots in sandy loam soil (doubly sown with in each case one species of mono- or dicotyledonous weed plants per pot), covered with soil and cultivated in a greenhouse under controlled growth conditions. 2 to 3 weeks after sowing, the test plants were treated at the one-leaf stage. The compounds of the invention, formulated in the form of wettable powders (WP) or as emulsion concentrates (EC), were applied onto the green parts of the plants as aqueous suspension or emulsion with addition of 0.5% additive at a water application rate of 600 liters per hectare (converted). After the test plants had been kept in the greenhouse under optimum growth conditions for about 3 weeks, the activity of the preparations was rated visually in comparison to untreated controls. For example, 100% activity=the plants have died, 0% activity=like control plants. Tables B1 to B8 below show the effects of selected compounds of the general formula (I) according to Table 1 on various harmful plants and an application rate corresponding to 1280 g/ha, which were obtained by the experimental procedure mentioned above.

[2] = tested on: Amaranthus retroflexus (AMARE); experiment: Post-emergence herbicidal action against Amaranthus retroflexus; details: 1280 g/ha; rated visually after about 3 weeks vs untreated controls; 100% = plants have died, 0% = like control plants
Protocol: as §1

Stellaria media (STEME) [3] = experiment: Post-emergence herbicidal action against Stellaria media; details: 1280 g/ha; rated visually after about 3 weeks vs untreated controls; 100% = plants have died, 0% = like control plants
Protocol: as §1

Poa annua (POAAN) [4] = experiment: Pre-emergence herbicidal action against Poa annua; details: 1280 g/ha; scored visually after about 3 weeks vs untreated controls; 100% = plants have died, 0% = like control plants
Text: (§2) Seeds of mono- and dicotyledonous weed plants were placed in plastic pots in sandy loam soil (doubly sown with in each case one species of mono- or dicotyledonous weed plants per pot) and covered with soil. The compounds of the invention, formulated in the form of wettable powders (WP) or as emulsion concentrates (EC), were then applied onto the surface of the covering soil as aqueous suspension or emulsion with addition of 0.5% additive at a water application rate of 600 liters per hectare (converted). After the treatment, the pots were placed in a greenhouse and kept under good growth conditions for the test plants. After about 3 weeks, the effect of the preparations was scored visually in comparison with untreated controls as percentages. For example, 100% activity=the plants have died, 0% activity=like control plants. Tables C1 to C8 below show the effects of selected compounds of the general formula (I) according to Table 1 on various harmful plants and an application rate corresponding to 1280 g/ha, which were obtained by the experimental procedure mentioned above.

Setaria viridis (SETVI) = experiment: Pre-emergence herbicidal action against Setaria viridis; details: 1280 g/ha; scored visually after about 3 weeks vs untreated controls; 100% = plants have died, 0% = like control plants
Text: as §2

[5] = tested on: Amaranthus retroflexus (AMARE); experiment: Pre-emergence herbicidal action against Amaranthus retroflexus; details: 1280 g/ha; scored visually after about 3 weeks vs untreated controls; 100% = plants have died, 0% = like control plants
Text: as §2

Stellaria media (STEME) [6] = experiment: Pre-emergence herbicidal action against Stellaria media; details: 1280 g/ha; scored visually after about 3 weeks vs untreated controls; 100% = plants have died, 0% = like control plants
Text: as §2

Poa annua (POAAN) [7] = experiment: Post-emergence herbicidal action against Poa annua; details: 1280 g/ha; rated visually after about 3 weeks vs untreated controls; 100% = plants have died, 0% = like control plants
Protocol: as §1

[8] = tested on: Echinochloa crus-galli (ECHCG); experiment: Pre-emergence herbicidal action against Echinochloa crus-galli; details: 1280 g/ha; scored visually after about 3 weeks vs untreated controls; 100% = plants have died, 0% = like control plants
Text: as §2

Lolium rigidum (LOLRI) = experiment: Pre-emergence herbicidal action against Lolium rigidum; details: 1280 g/ha; scored visually after about 3 weeks vs untreated controls; 100% = plants have died, 0% = like control plants
Text: as §2

[9] = tested on: Abutilon theophrasti (ABUTH); experiment: Pre-emergence herbicidal action against Abutilon theophrasti; details: 1280 g/ha; scored visually after about 3 weeks vs untreated controls; 100% = plants have died, 0% = like control plants
Text: as §2

[10] = tested on: Matricaria inodora (MATIN); experiment: Pre-emergence herbicidal action against Matricaria inodora; details: 1280 g/ha; scored visually after about 3 weeks vs untreated controls; 100% = plants have died, 0% = like control plants
Text: as §2

[11] = tested on: Abutilon theophrasti (ABUTH); experiment: Post-emergence herbicidal action against Abutilon theophrasti; details: 1280 g/ha; rated visually after about 3 weeks vs untreated controls; 100% = plants have died, 0% = like control plants
Protocol: as §1

Row | SMILES | Post-emergence action against Echinochloa crus-galli (ECHCG) [1] | Post-emergence action against Amaranthus retroflexus (AMARE) [2] | Post-emergence action against Stellaria media (STEME) (Stellaria media (STEME) [3]) | Pre-emergence action against Poa annua (POAAN) (Poa annua (POAAN) [4]) | Pre-emergence action against Setaria viridis (SETVI) (Setaria viridis (SETVI)) | Pre-emergence action against Amaranthus retroflexus (AMARE) [5] | Pre-emergence action against Stellaria media (STEME) (Stellaria media (STEME) [6]) | Post-emergence action against Poa annua (POAAN) (Poa annua (POAAN) [7]) | Pre-emergence action against Echinochloa crus-galli (ECHCG) [8] | Pre-emergence action against Lolium rigidum (LOLRI) (Lolium rigidum (LOLRI)) | Pre-emergence action against Abutilon theophrasti (ABUTH) [9] | Pre-emergence action against Matricaria inodora (MATIN) [10] | Post-emergence action against Abutilon theophrasti (ABUTH) [11]
1 | Fc1cnc(Oc2ncccc2Sc2cccc(Cl)c2)nc1 [Example I-158] | 100% | 100% | 100% | 90% | 90% | 100% | 100% |  |  |  |  |  | 
2 | Cc1ccnc(Oc2ncccn2)c1Sc1cccc(Cl)c1 [Example I-212] | 100% |  | 100% | 100% | 100% | 100% | 100% | 100% | 100% | 100% | 100% | 100% | 
3 | Cc1ccc(Cc2ccccc2)c(Oc2ncc(Cl)cn2)n1 [Example I-397] |  |  | 100% | 100% | 100% | 90% | 100% | 100% | 100% | 100% | 100% | 100% | 90%
4 | Cc1ccc(Cc2ccc(F)cc2F)c(Oc2ncc(F)cn2)n1 [Example I-433] |  | 90% | 100% | 100% | 100% | 100% | 100% | 100% | 100% | 90% | 100% | 100% | 90%
5 | Cc1cc(C)c(Cc2ccc(Cl)cc2)c(Oc2ncc(F)cn2)n1 [Example I-482] |  | 100% | 100% | 100% | 100% | 100% | 100% | 100% | 100% | 100% | 100% | 100% | 90%
6 | Cc1cc(C)c(Cc2ccc(C)c(F)c2)c(Oc2ncc(F)cn2)n1 [Example I-483] |  | 90% | 100% | 100% | 100% | 100% | 100% | 90% | 90% | 90% | 100% | 100% | 90%
7 | Cc1cc(C)c(Cc2ccc(Cl)c(F)c2)c(Oc2ncc(F)cn2)n1 [Example I-485] |  | 100% | 100% | 100% | 100% | 100% | 100% | 90% | 90% | 90% | 100% | 100% | 90%
8 | Cc1ccc(Cc2c(C)cc(C)nc2Oc2ncc(F)cn2)cc1 [Example I-486] |  | 90% | 100% | 100% | 100% | 100% | 100% | 100% | 100% | 90% | 100% |  | 90%
9 | COc1c(F)ccc(Cc2c(C)cc(C)nc2Oc2ncc(F)cn2)c1F [Example I-488] |  | 100% | 100% | 100% | 100% | 100% | 100% | 90% | 100% | 100% | 100% | 100% | 100%
10 | Cc1ccc(Oc2ccc(Cl)cc2)c(Oc2ncc(Cl)cn2)n1 [Example I-504] | 90% | 100% | 100% | 90% | 100% | 100% | 100% | 100% |  | 90% | 90% | 90% | 
11 | Cc1ccc(Oc2ccccc2)c(Oc2ncc(F)cn2)n1 [Example I-511] |  | 100% | 100% | 100% | 100% | 100% | 100% | 100% | 100% | 90% | 100% | 100% | 90%
12 | Cc1ccc(Oc2ccc(Cl)cc2)c(Oc2ncc(F)cn2)n1 [Example I-515] | 100% | 100% | 100% | 100% | 100% | 100% | 100% | 100% | 100% | 90% | 100% | 100% | 
